The molecules below were run against Sodium channel protein type 9 subunit alpha (Homo sapiens, UniProt Q15858) (assay: EFS-FRET Assay: This screen is used to determine the effects of compounds on human Nav1.7 channels, utilizing electrical field stimulation (EFS) system in 96-well plate format on FDSS (Hamamatsu Photonics) platform. The changes of membrane potential are monitored with FRET dye pair, DiSBAC2(3) and PTS 18.).
Sequence of Sodium channel protein type 9 subunit alpha (Q15858 whole entry): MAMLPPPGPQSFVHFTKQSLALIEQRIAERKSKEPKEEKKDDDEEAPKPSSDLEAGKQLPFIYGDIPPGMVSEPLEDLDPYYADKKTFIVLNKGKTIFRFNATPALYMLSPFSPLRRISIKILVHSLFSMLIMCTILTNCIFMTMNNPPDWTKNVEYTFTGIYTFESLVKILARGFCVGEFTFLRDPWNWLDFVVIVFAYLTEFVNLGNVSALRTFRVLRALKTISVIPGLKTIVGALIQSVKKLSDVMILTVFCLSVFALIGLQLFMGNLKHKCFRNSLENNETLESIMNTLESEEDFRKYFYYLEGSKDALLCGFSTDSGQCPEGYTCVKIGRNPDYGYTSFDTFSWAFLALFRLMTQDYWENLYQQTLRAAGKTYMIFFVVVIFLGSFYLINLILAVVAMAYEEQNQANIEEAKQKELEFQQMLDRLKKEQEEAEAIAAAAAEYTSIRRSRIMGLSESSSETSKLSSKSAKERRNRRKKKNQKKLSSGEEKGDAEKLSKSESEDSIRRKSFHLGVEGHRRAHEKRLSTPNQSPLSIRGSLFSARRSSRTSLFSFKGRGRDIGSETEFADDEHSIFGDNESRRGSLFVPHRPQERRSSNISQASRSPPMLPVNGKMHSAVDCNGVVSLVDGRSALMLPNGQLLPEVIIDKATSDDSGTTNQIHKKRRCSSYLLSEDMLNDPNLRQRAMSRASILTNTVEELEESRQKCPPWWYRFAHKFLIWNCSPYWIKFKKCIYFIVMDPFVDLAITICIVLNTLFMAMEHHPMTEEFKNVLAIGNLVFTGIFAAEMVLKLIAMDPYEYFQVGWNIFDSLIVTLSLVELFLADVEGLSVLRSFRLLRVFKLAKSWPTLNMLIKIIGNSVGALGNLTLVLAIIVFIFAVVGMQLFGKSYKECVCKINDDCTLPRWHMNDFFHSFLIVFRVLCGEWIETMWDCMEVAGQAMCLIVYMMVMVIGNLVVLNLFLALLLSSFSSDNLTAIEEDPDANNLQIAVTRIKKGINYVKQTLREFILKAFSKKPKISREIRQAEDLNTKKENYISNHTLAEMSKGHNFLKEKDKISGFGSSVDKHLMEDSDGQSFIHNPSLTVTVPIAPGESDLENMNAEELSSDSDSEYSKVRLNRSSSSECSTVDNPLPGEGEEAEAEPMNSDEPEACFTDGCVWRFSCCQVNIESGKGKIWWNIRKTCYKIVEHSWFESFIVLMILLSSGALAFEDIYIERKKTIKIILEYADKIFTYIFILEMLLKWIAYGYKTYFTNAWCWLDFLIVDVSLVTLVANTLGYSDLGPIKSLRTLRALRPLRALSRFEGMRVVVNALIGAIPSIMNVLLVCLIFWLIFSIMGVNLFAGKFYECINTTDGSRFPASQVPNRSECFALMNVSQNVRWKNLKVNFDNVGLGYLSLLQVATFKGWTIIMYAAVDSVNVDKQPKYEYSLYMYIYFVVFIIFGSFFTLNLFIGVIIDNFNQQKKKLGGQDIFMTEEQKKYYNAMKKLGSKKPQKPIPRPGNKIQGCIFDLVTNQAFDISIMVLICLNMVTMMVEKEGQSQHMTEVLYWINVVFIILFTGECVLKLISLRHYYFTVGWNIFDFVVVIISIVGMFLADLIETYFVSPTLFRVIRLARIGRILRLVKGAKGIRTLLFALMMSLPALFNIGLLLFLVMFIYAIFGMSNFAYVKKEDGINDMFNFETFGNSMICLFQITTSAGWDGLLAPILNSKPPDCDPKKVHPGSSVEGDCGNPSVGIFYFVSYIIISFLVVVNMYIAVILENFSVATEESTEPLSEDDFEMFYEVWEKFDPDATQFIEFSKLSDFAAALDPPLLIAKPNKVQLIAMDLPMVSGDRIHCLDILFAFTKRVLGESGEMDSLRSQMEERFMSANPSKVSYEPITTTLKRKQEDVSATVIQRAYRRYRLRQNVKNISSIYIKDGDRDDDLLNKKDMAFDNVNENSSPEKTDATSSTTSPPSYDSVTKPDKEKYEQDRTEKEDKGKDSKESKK

IC50, < 500 nM:
Cc1c(-c2cc(F)cc(OCc3ccc(C(=O)NS(C)(=O)=O)cc3)c2)ccnc1OCC1CC1
CS(=O)(=O)NC(=O)c1ccc(COc2cc(-c3ccc(OCC4CC4)nc3)cc(C(F)(F)F)c2)cc1
CS(=O)(=O)NC(=O)c1ccc(COc2cccc(-c3ccc(OCC4CCOCC4)nc3)c2)cc1
CS(=O)(=O)NC(=O)c1ccc(COc2cccc(-c3ccc(OCC4CCOC4)nc3)c2)c(F)c1 (configuration not stated)
Cc1nc(OCC2CC2)ncc1-c1cccc(OCc2ccc(C(=O)NS(C)(=O)=O)cc2F)c1
CS(=O)(=O)NC(=O)c1ccc(COc2cc(-c3cncnc3)cc(-c3ccc(OCC4CC4)nc3)c2)cc1
O=C(NS(=O)(=O)C1CC1)c1ccc(COc2cccc(-c3cnc(OCC4CC4)cn3)c2)cc1
Cc1cc(-c2cccc(OCc3ccc(C(=O)NS(C)(=O)=O)cc3F)c2)cnc1OCC1CC1
Cc1cc(OCC2CC2)cnc1-c1cccc(OCc2ccc(C(=O)NS(C)(=O)=O)cc2F)c1
CCOC(=O)N1CCC(COc2ccc(-c3cccc(OCc4ccc(C(=O)NS(C)(=O)=O)cc4)c3)cn2)CC1
CS(=O)(=O)NC(=O)c1ccc(COc2cccc(-c3cc(OCC4CC4)ncn3)c2)c(F)c1
CS(=O)(=O)NC(=O)c1ccc(COc2ccc(Cl)c(-c3ccc(OCC4CC4)nc3)c2)c(F)c1
CS(=O)(=O)NC(=O)c1ccc(COc2ccc(F)c(-c3cnc(OCC4CC4)cn3)c2)c(F)c1
CS(=O)(=O)NC(=O)c1ccc(COc2cc(F)cc(-c3cc(OCC4CC4)ccn3)c2)cc1
CS(=O)(=O)NC(=O)c1ccc(COc2cc(F)cc(-c3cc(OCC4CC4)cc(C(=O)N4CCOCC4)c3)c2)c(F)c1
CS(=O)(=O)NC(=O)c1ccc(COc2ccc(F)c(-c3ccc(OCC4CC4)nc3)c2)c(F)c1
CS(=O)(=O)NC(=O)c1ccc(COc2ccc(Cl)c(-c3ccc(OCC4CC4)nc3)c2)cc1
CS(=O)(=O)NC(=O)c1ccc(COc2cccc(-c3ccc(OCC4CC4)nc3)c2F)cc1
Cc1c(OCC2CC2)ccnc1-c1cc(F)cc(OCc2ccc(C(=O)NS(C)(=O)=O)cc2)c1
Cc1cc(OCc2ccc(C(=O)NS(C)(=O)=O)cc2F)cc(-c2ccc(OCC3CC3)nc2)c1
CS(=O)(=O)NC(=O)c1ccc(COc2cc(F)cc(-c3cnc(OCC4CCC4)c(CO)c3)c2)c(F)c1
CS(=O)(=O)NC(=O)c1ccc(COc2cccc(-c3ccc(OCC4CC4)nc3)n2)cc1
CS(=O)(=O)NC(=O)c1ccc(COc2cccc(-c3ncc(OCC4CC4)cc3Cl)c2)cc1
O=C(NS(=O)(=O)C1CC1)c1ccc(COc2cc(F)cc(-c3ccc(OCC4CC4)nc3)c2)c(F)c1
CC(C)S(=O)(=O)NC(=O)c1ccc(COc2cccc(-c3ccc(OCC4CC4)nc3)c2)c(F)c1
CCS(=O)(=O)NC(=O)c1ccc(COc2cccc(-c3ccc(OCC4CC4)nc3)c2)c(F)c1
CS(=O)(=O)NC(=O)c1ccc(COc2cccc(-c3cc(OCC4CC4)ccn3)c2)cc1
CS(=O)(=O)NC(=O)c1ccc(COc2cc(-c3ccc(OCC4CC4)nc3)cc(C3CC3)c2)cc1
CS(=O)(=O)NC(=O)c1ccc(COc2cc(F)cc(-c3cnc(OCC4CCC4)c(CO)c3)c2)cc1
Cc1ccc(OCc2ccc(C(=O)NS(=O)(=O)C3CC3)cc2F)cc1-c1ccc(OCC2CC2)nc1
O=C(NS(=O)(=O)c1nccs1)c1ccc(COc2cccc(-c3ccc(OCC4CC4)nc3)c2)cc1
CS(=O)(=O)NC(=O)c1ccc(COc2cccc(-c3cccc(OCC4CC4)n3)c2)cc1
CS(=O)(=O)NC(=O)c1ccc(COc2cccc(-c3cnc(OCC4CCC4)cn3)c2)c(F)c1
CS(=O)(=O)NC(=O)c1ccc(COc2cc(C#N)cc(-c3ccc(OCC4CC4)nc3)c2)cc1
N#Cc1cc(C(=O)NS(=O)(=O)C2CC2)ccc1COc1cccc(-c2ccc(OCC3CC3)nc2)c1
CS(=O)(=O)NC(=O)c1ccc(COc2cc(Br)cc(-c3ccc(OCC4CC4)nc3)c2)cc1
CS(=O)(=O)NC(=O)c1ccc(COc2cc(-c3ccc(OCC4CC4)nc3)ccc2F)cc1
CS(=O)(=O)NC(=O)c1ccc(COc2cc(F)cc(-c3cnc(OCC4CC4)cn3)c2)cc1
O=C(NS(=O)(=O)CC1CC1)c1ccc(COc2cc(F)cc(-c3ccc(OCC4CC4)nc3)c2)cc1
O=C(NS(=O)(=O)C1CC1)c1ccc(COc2cc(-c3ccc(OCC4CC4)nc3)ccn2)cc1
CS(=O)(=O)NC(=O)c1cc(Cl)c(COc2cccc(-c3ccc(OCC4CC4)nc3)c2)cc1F
CNC(=O)c1cc(-c2cccc(OCc3ccc(C(=O)NS(C)(=O)=O)cc3F)c2)ccc1OCC1CC1
CS(=O)(=O)NC(=O)c1ccc(COc2cccc(-c3ccc(OCC4CC4)nc3)c2)c(Cl)c1
CS(=O)(=O)NC(=O)c1ccc(COc2cc(F)cc(-c3cc(OCC4CC4)ncn3)c2)cc1
CS(=O)(=O)NC(=O)c1ccc(COc2cc(F)cc(-c3cnc(OCC4CC4)c(Cl)c3)c2)c(F)c1
Cc1ccc(OCc2ccc(C(=O)NS(C)(=O)=O)cc2F)cc1-c1ccc(OCC2CC2)nc1
CC(C)(C)OC(=O)N1CC(COc2ccc(-c3cccc(OCc4ccc(C(=O)NS(C)(=O)=O)cc4F)c3)cn2)C1

From ChEMBL document CHEMBL5728485, “Biaryloxy derivatives as TTX-S blockers” (2021)
